The source of these data is patent publication US8883758B2, “3,5-disubstituted and 3,5,7-trisubstituted-3H-oxazolo and 3H-thiazolo[4,5-d]pyrimidin-2-one compounds and prodrugs thereof” (Anadys Pharmaceuticals, Inc., priority 2004, dated 2014).

Where only a bound is given, the exact number is not on record here.

This test deals with human PBMCs. The test can be described thus: IFN-α induction from peripheral blood mononuclear cells (PBMC), IFN-α ELISA. The class given is cell-based. The note with it: for Emax: Homo sapiens, PBMC, percentage of the level of IFN-α induction by either 32 or 100 μM isatoribine, 24 hours compound exposure, read-out: IFN-α induction from PBMCs relative to isatoribine; for Difference in amount of IFN-α produced compared with isatoribine: 100 μM test agent. The method, then:
Peripheral blood mononuclear cells (PBMCs) are prepared by standard methods from human blood and are primarily comprised of monocytes, NK cells, circulating dendritic cells and both T and B cells. Briefly, they are purified by density gradient centrifugation from a buffy coat, which is the component of whole blood that contains leukocytes and platelets. In turn, buffy coats are prepared by centrifuging whole blood and isolating the thin cream colored layer between the upper plasma layer and the lower red blood cell portion of the separated mixture.
Freshly collected donor buffy coats were obtained from the San Diego Blood Bank. PBMCs were isolated from the buffy coats using histopaque-1077 gradient (Sigma), essentially as described in the manufacturer's protocol. Buffy coats were transferred into 50 ml centrifuge tubes and PBS added to a total volume of 35 ml. Next 10 ml histopaque-1077 was underlayed at the bottom of each tube, which were then centrifuged at 259×g for 30 minutes at room temperature without brake in a 5804 R centrifuge (Eppendorf). The top PBS level from each tube was removed and discarded and the buffy coat layer transferred to a fresh tube. The total volume was made up to 50 ml with PBS and the tubes were then centrifuged for 10 minutes at 259×g at room temperature. The cells were washed an additional 3 times with PBS in this manner.
The cell (PBMC) pellet was then resuspended in 30-40 ml complete (RPMI 1640) media. PBMCs were seeded at either 2.5 or 7.5×10^6 cells/ml complete media (1× and 3× seedings, respectively) and allowed to rest overnight before compound exposure for 24 hours. The cells and media were then collected, centrifuged for 5 minutes at 735×g in a 5415 C microfuge (Eppendorf) at room temperature and the supernatant analyzed by IFN-α ELISA. […] Hereby incorporated by reference in their entireties are U.S. Pat. Nos. 5,041,426 and 4,880,784, and U.S. patent application Ser. No. 10/861,430 (U.S. Patent Application Publication No. US 2005/0070556), which disclose, inter alia, IFN-α induction of isatoribine.
Accordingly, relative activities of the compounds of the invention are expressed as a percentage of the level of IFN-α induction by either 32 or 100 μM isatoribine.
Human IFN-α ELISA (#KHC4012) was performed as described in Biosource protocol. However, to ensure that readings were within the linear range of detection, PBMC supernatant samples were typically diluted 1:3 (2.5×10^6 cells/ml seeding) or 1:15 (7.5×10^6 cells/ml seeding) and then analyzed together with undiluted supernatant samples. The concentration in each sample was calculated from the O.D. by reference to a standard curve.
Background: ELISA stands for enzyme-linked immunosorbent assay.

Setting [1] is: 1× PBMC seeding, 100 μM test compound.

Turning to `CC(=O)OC[C@H]1O[C@@H](n2c(=S)sc3c(=O)[nH]c(N)nc32)[C@H](OC(C)=O)[C@@H]1OC(C)=O` [Compound 32, 5-amino-2,3-dihydro-2-thioxo-3-(2′,3′,5′-tri-O-acetyl-β-D-ribofuranosyl)thiazolo[4,5-d]pyrimidin-7-(6H)-one], the Emax was in the range of 51 to 100%.
For `Nc1nc2c(sc(=S)n2[C@@H]2O[C@H](CO)[C@@H](O)[C@H]2O)c(=O)[nH]1` [Compound 33, 5-amino-2,3-dihydro-2-thioxo-3-β-D-ribofuranosyl-thiazolo[4,5-d]pyrimidin-7(6H)-one], the Emax was 0 to 10%.
On to `CC(=O)OC[C@H]1O[C@@H](n2c(=S)sc3c(=O)[nH]c(N)nc32)[C@H](OC(C)=O)[C@H]1OC(C)=O` [Compound 34, 5-amino-2,3-dihydro-2-thioxo-3-(2′,3′,5′-tri-O-acetyl-β-D-xylofuranosyl)thiazolo[4,5-d]pyrimidin-7-(6H)-one], for which the Emax is over 100%.
Same read-out and setting: as for `C[C@@]1(O)[C@@H](CO)O[C@@H](n2c(=O)sc3c(=O)[nH]c(N)nc32)[C@@H]1O` [Compound 117, 5-Amino-3-(3′-C-methyl-β-D-ribofuranosyl)thiazolo[4,5-d]pyrimidine-2,7(3H,6H)-dione], the figure is over 100%; as for `CC(=O)OC[C@@H]1C[C@@H](OC(C)=O)[C@H](n2c(=O)sc3c(=O)[nH]c(N)nc32)O1` [Compound 121, 5-Amino-3-(2′,5′-di-O-acetyl-3′-deoxy-β-D-ribofuranosyl)-3H,6H-thiazolo[4,5-d]pyrimidine-2,7-dione], over 100%.
Consider `Nc1nc2c(sc(=O)n2[C@@H]2O[C@H](CO)C[C@H]2O)c(=O)[nH]1` [Compound 122, 5-Amino-3-(3′-deoxy-β-D-ribofuranosyl)-3H,6H-thiazolo[4,5-d]pyrimidine-2,7-dione], for which the Emax was over 100%. Besides, under setting [1], the “IFN-α production compared with isatoribine” value was “significantly and substantially more IFN-α production”. Moreover, the “IFN-α production compared with isatoribine” value (3× PBMC seeding, 32 μM) is “dramatically and unexpectedly outperform isatoribine”. Besides, the “Difference in amount of IFN-α produced compared with isatoribine” value (3× PBMC seeding) is “less clear-cut although visually apparent and statistically significant”.
With `Nc1nc2c(sc(=O)n2[C@H]2C[C@H](O)[C@@H](CO)O2)c(=O)[nH]1` [Compound 130, 5-Amino-3-(2′-deoxy-β-D-ribofuranosyl)-3H,6H-thiazolo[4,5-d]pyrimidine-2,7-dione], the Emax is 51 to 100%.
With `C=C1[C@@H](O)[C@H](n2c(=O)sc3c(=O)[nH]c(N)nc32)O[C@@H]1CO` [Compound 132, 5-Amino-3-(3′-deoxy-3′-methylidene-β-D-ribofuranosyl)-3H,6H-thiazolo[4,5-d]pyrimidine-2,7-dione], the Emax is over 100%.
Turning to `CC(=O)OC[C@H]1O[C@@H](n2c(=O)sc3c(=O)[nH]c(N)nc32)[C@H](OC(C)=O)[C@H]1OC(C)=O` [Compound 133, 5-Amino-3-(2′,3′,5′-tri-O-acetyl-β-D-xylofuranosyl)-3H,6H-thiazolo[4,5-d]pyrimidin-2-one], the Emax is over 100%.
On to `Nc1nc2c(sc(=O)n2[C@@H]2O[C@H](CO)[C@H](O)[C@H]2O)c(=O)[nH]1` [Compound 134], for which the Emax was over 100%. Besides, the “IFN-α production compared with isatoribine” value under setting [1] is “significantly and substantially more IFN-α production”. Further, the “IFN-α production compared with isatoribine” value (3× PBMC seeding, 32 μM) is “dramatically and unexpectedly outperform isatoribine”. Also, the “Difference in amount of IFN-α produced compared with isatoribine” value (3× PBMC seeding) is “less clear-cut although visually apparent and statistically significant”.
As to `CO[C@@H]1[C@@H](O)[C@H](n2c(=O)sc3c(=O)[nH]c(N)nc32)O[C@@H]1CO` [Compound 137, 5-Amino-3-(3′-(R)-Methoxy-β-D-xylofuranosyl)-3H,6H-thiazolo[4,5-d]pyrimidin-2-one], the Emax lay in the range of 51 to 100%.
Consider `C[C@]1(O)[C@@H](CO)O[C@@H](n2c(=O)sc3c(=O)[nH]c(N)nc32)[C@@H]1O` [Compound 141, 5-Amino-3-(3′-(S)-methyl, 2′,3′,5′-tri-hydroxy-β-D-xylofuranosyl)-3H,6H-thiazolo[4,5-d]pyrimidin-2-one], for which the Emax fell in the range of 0 to 10%.
As to `CC(=O)OCC(OC(C)=O)[C@H]1O[C@@H](n2c(=O)sc3c(=O)[nH]c(N)nc32)[C@H](OC(C)=O)[C@H]1OC(C)=O` (stereo partly drawn) [Compound 142, 5-Amino-3-(5′-(1,2-diacetoxy-ethyl), 2′,3′-di-O-acetyl-β-D-glucofuranosyl)-3H,6H-thiazolo[4,5-d]pyrimidin-2-one], the Emax fell in the range of 0 to 10%.
Same read-out and setting: as for `CC(=O)OC[C@H]1[C@@H](OC(C)=O)[C@H](n2c(=O)sc3c(=O)[nH]c(N)nc32)O[C@@H]1COC(C)=O` [Compound 147, (3′S)-5-Amino-3-(3′-acetoxymethyl-2′,5′-di-O-acetyl-3′-deoxy-β-D-ribofuranosyl)-3H,6H-thiazolo[4,5-d]pyrimidin-2,7-dione], the figure is over 100%; as for `Nc1nc2c(sc(=O)n2[C@@H]2O[C@H](CO)[C@@H](CO)[C@H]2O)c(=O)[nH]1` [Compound 148, (3′S)-5-Amino-3-(3′-deoxy-3′-hydroxymethyl-β-D-ribofuranosyl)-3H,6H-thiazolo[4,5-d]pyrimidin-2,7-dione], 0 to 10%; as for `CC(=O)O[C@@H]1[C@@H](F)[C@@H](COC(=O)c2ccccc2)O[C@H]1n1c(=O)sc2c(=O)[nH]c(N)nc21` [Compound 152, (3′R)-5-Amino-3-(2′-O-acetyl-5′-O-benzoyl-3′-deoxy-3′-fluoro-β-D-xylofuranosyl)-3H,6H-thiazolo[4,5-d]pyrimidin-2,7-dione], 11 to 50%.
On to `Nc1nc2c(sc(=O)n2[C@@H]2O[C@H](CO)[C@H](F)[C@H]2O)c(=O)[nH]1` [Compound 153, (3′R)-5-Amino-3-(3′-deoxy-3′-fluoro-β-D-xylofuranosyl)-3H,6H-thiazolo[4,5-d]pyrimidin-2,7-dione], for which the Emax is over 100%.
Turning to `CCCCCCn1c(=O)sc2c(=O)[nH]c(N)nc21` [Compound 157, 5-Amino-3-hexyl-3H,6H-thiazolo[4,5-d]pyrimidine-2,7-dione], the Emax lay within 0 to 10%.
Consider `Nc1nc2c(sc(=O)n2[C@H]2CC[C@@H](CO)O2)c(=O)[nH]1` [Compound 165, 5-Amino-3-(2′,3′-dideoxy-β-D-ribofuranosyl)-3H,6H-thiazolo[4,5-d]pyrimidine-2,7-dione], for which the Emax is 11 to 50%.
